Patent US11331364B2, “Use for JNK inhibitor molecules for treatment of various diseases” (Xigen Inflammation Ltd., priority 2014, dated 2022)
Square brackets hold non-standard residues; d marks the D form. Peptide text beside a SMILES is read from it.

Experiments:
[1] = dissolved in 0.9% NaCl, up to 0.4 mg/ml
Text: To receive three different doses (cf. above, groups table) it has been serially diluted (1:10 fold).

hJNK1 = target: T1, hJNK1 (Homo sapiens, UniProt P45983); experiment: AlphaScreen assay, inhibition of JNK1 phosphorylation of c-Jun substrate; type: biochemical; conditions: in comparison to L-TAT-IB1; FIG. 4 (JNK1, JNK2, JNK3 AlphaScreen)
T1 construct: His; purchased Upstate 14-327
Protocol: In the following a standard operating procedure will be set forth describing how the Inhibitory efficacy of JNK inhibitors according to the present invention was measured. The method allows to measure in vitro, in a non radioactive standardized assay, the ability of a candidate compound to decrease the phosphorylation of the c-Jun specific substrate by JNK. Moreover, it will be illustrated how to determine the inhibitory effect (IC50) and the Ki of a chosen compound for JNK. […] And a person skilled in the art will certainly understand how to adapt the below methods for his specific purposes and needs.
AlphaScreen Reagent and Plate: • His-JNK1 (ref 14-327, Upstate, 10 μg in 100 μl: concentration: 2.2 μM) 5 nM final • His-JNK2 (ref 14-329, Upstate, 10 μg in 100 μl: concentration: 2 μM) 5 nM final • His-JNK3 (ref 14-501, Upstate, 10 μg in 100 μl: concentration: 1.88 μM) 5 nM final • Anti-Phospho-cJun (ref 06-828, Upstate, lot DAM1503356, concentration: 44.5 μM) 10 nM final • Biotin-cJun (29-67): • sequence: Biotin—[…] […]
The bioluminescent energy transfer was read on the Fusion Alpha Plate reader (Perkin Elmer). […]

T1 sequence (P45983 1-384 isoform P45983-2): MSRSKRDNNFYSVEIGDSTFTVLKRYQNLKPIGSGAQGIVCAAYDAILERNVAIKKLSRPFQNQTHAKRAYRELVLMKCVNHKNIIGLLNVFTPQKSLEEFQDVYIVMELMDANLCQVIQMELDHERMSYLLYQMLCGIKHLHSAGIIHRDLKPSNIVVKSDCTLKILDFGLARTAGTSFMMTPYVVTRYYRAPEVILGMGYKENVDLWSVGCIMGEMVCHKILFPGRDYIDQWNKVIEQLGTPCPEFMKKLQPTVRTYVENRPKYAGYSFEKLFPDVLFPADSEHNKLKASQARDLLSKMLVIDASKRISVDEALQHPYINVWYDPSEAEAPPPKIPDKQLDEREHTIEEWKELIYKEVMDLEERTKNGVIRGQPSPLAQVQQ

SMILES | solubility [1] | inhibitory capacity (hJNK1)
CC(C)C[C@H](NC(=O)[C@H](CC(N)=O)NC(=O)[C@H](CC(C)C)NC(=O)[C@@H](NC(=O)[C@@H](C)NC(=O)[C@@H]1CCCN1C(=O)[C@H](CCCNC(=N)N)NC(=O)[C@@H](CCCCN)NC(=O)[C@@H]1CCCN1C(=O)[C@H](CCCNC(=N)N)NC(=O)[C@@H](CCCNC(=N)N)NC(=O)[C@H](CCCNC(=N)N)NC(=O)[C@H](CCCNC(=N)N)NC(=O)[C@H](CCC(N)=O)NC(=O)[C@@H](CCCNC(=N)N)NC(=O)[C@H](CCCNC(=N)N)NC(=O)[C@H](CCCCN)NC(=O)[C@H](CCCCN)NC(=O)[C@H](N)CCCNC(=N)N)[C@@H](C)O)C(=O)N[C@H](Cc1ccccc1)C(N)=O [SEQ ID NO: 172, rKKRrQRRrRPkRPaTLNLf] (H-[dR]KKR[dR]QRR[dR]RP[dK]RP[dA]TLNL[dF]-NH2; N-terminus assumed) | readily soluble and did not fall out of solution | –
CC(C)C[C@@H](NC(=O)[C@@H](Cc1ccccc1)NC(=O)[C@H]1CCCN1C(=O)[C@@H](CCC(N)=O)NC(=O)[C@H](NC(=O)[C@H]1CCCN1C(=O)[C@@H](CCCNC(=N)N)NC(=O)[C@@H](CO)NC(=O)[C@@H](CCC(N)=O)NC(=O)[C@H](N)CC(=O)O)C(C)C)C(=O)N[C@H](CC(N)=O)C(=O)N[C@H](CC(C)C)C(=O)N[C@@H](C(=O)N[C@@H](C(=O)N1CCC[C@@H]1C(=O)N[C@H](CCCNC(=N)N)C(=O)N[C@H](CCCCN)C(=O)N1CCC[C@@H]1C(=O)N[C@H](CCCNC(=N)N)C(=O)N1CCC[C@@H]1C(=O)N1CCC[C@@H]1C(=O)N[C@H](CCCNC(=N)N)C(=O)N[C@H](CCCNC(=N)N)C(=O)N[C@H](CCCNC(=N)N)C(=O)N[C@H](CCC(N)=O)C(=O)N[C@H](CCCNC(=N)N)C(=O)N[C@H](CCCNC(=N)N)C(=O)N[C@H](CCCCN)C(=O)N[C@H](CCCCN)C(=O)N[C@H](CCCNC(=N)N)C(=O)NCC(N)=O)[C@H](C)O)[C@H](C)O [SEQ ID NO: 197, dqsrpvqpflnlttprkprpprrrqrrkkrg, reference compound] (H-[dD][dQ][dS][dR][dP][dV][dQ][dP][dF][dL][dN][dL][dT][dT][dP][dR][dK][dP][dR][dP][dP][dR][dR][dR][dQ][dR][dR][dK][dK][dR]G-NH2) | – | significant decrease in inhibitory capacity
